Measured values: patent US20230085307A1, “PYRIDAZINONE COMPOUND AND HERBICIDE” (NISSAN CHEMICAL CORPORATION, priority 2019, published 2023)

How the values were obtained:
late watergrass = assay: Test Example 2: herbicidal activity, application during weed generation under submerged conditions (Table 17, symbol A); type: in vivo, late watergrass (Echinochloa oryzicola); conditions: AAH 320 g/ha; application during weed generation, submerged conditions
Outline: (§1)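 3-wk visual-criteria score after one water-surface dose. Emulsion formulation, water-diluted to set rate; applied at 1–2 leaf stage; alluvial soil, 4 cm standing water; seeds co-sown; greenhouse 25–30° C.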

Japanese bulrush = assay: Test Example 2: herbicidal activity, application during weed generation under submerged conditions (Table 17, symbol B); type: in vivo, Japanese bulrush (Schoenoplectus juncoides); conditions: AAH 320 g/ha; application during weed generation, submerged conditions
Outline: as §1

barnyard grass [1] = assay: Test Example 3: herbicidal effect by foliage application, Wagner pot (Table 18, symbol H); type: in vivo, barnyard grass (Echinochloa crus-galli); conditions: amount of applied herbicide 320 g/ha
Outline: (§2)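 Plants were sown in alluvial soil held under 0.1–0.5 cm standing water and grown 14 days in a greenhouse at 25–30 °C. An emulsifiable formulation, water-diluted to the set dose, was then sprayed onto the foliage, and effects were scored three weeks later using previously defined criteria.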

rice flat sedge = assay: Test Example 3: herbicidal effect by foliage application, Wagner pot (Table 18, symbol E); type: in vivo, rice flat sedge (Cyperus iria); conditions: amount of applied herbicide 320 g/ha
Outline: as §2

southern crabgrass [2] = assay: Test Example 4: herbicidal effect by soil treatment (Table 19, symbol F); type: in vivo, southern crabgrass (Digitaria ciliaris); conditions: amount of applied herbicide 320 g/ha
Outline: (§3)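 Seeds were sown in sterilized diluvial soil and covered with about 1.5 cm of soil. An emulsion formulation diluted with water to a predetermined herbicide amount was sprayed evenly onto the soil surface. Plants grew in a greenhouse at 25° C. to 30° C., and the effect was scored three weeks after application using criteria from an earlier test.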

green foxtail = assay: Test Example 4: herbicidal effect by soil treatment (Table 19, symbol G); type: in vivo, green foxtail (Setaria viridis); conditions: amount of applied herbicide 320 g/ha
Outline: as §3

barnyard grass [3] = assay: Test Example 4: herbicidal effect by soil treatment (Table 19, symbol H); type: in vivo, barnyard grass (Echinochloa crus-galli); conditions: amount of applied herbicide 320 g/ha
Outline: as §3

wild oat [4] = assay: Test Example 4: herbicidal effect by soil treatment (Table 19, symbol I); type: in vivo, wild oat (Avena fatua); conditions: amount of applied herbicide 320 g/ha
Outline: as §3

Italian ryegrass [5] = assay: Test Example 4: herbicidal effect by soil treatment (Table 19, symbol K); type: in vivo, Italian ryegrass (Lolium multiflorum); conditions: amount of applied herbicide 320 g/ha
Outline: as §3

velvetleaf = assay: Test Example 4: herbicidal effect by soil treatment (Table 19, symbol M); type: in vivo, velvetleaf (Abutilon theophrasti); conditions: amount of applied herbicide 320 g/ha
Outline: as §3

redroot pigweed [6] = assay: Test Example 4: herbicidal effect by soil treatment (Table 19, symbol N); type: in vivo, redroot pigweed (Amaranthus retroflexus); conditions: amount of applied herbicide 320 g/ha
Outline: as §3

lambsquarters [7] = assay: Test Example 4: herbicidal effect by soil treatment (Table 19, symbol O); type: in vivo, lambsquarters (Chenopodium album); conditions: amount of applied herbicide 320 g/ha
Outline: as §3

chickweed = assay: Test Example 4: herbicidal effect by soil treatment (Table 19, symbol P); type: in vivo, common chickweed (Stellaria media); conditions: amount of applied herbicide 320 g/ha
Outline: as §3

southern crabgrass [8] = assay: Test Example 5: herbicidal effect by foliage application, plastic box (Table 20, symbol F); type: in vivo, southern crabgrass (Digitaria ciliaris); conditions: foliage application, AAH 320 g/ha, evaluated three weeks after application
Outline: (§4)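 Plants sown in sterilized diluvial soil and grown 14 days in a greenhouse at 25° C to 30° C, then sprayed on the foliage with the compound's emulsion diluted in water to a predetermined herbicide amount. Injury to weeds and crops scored three weeks after application on a visual rating scale.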

barnyard grass [9] = assay: Test Example 5: herbicidal effect by foliage application, plastic box (Table 20, symbol H); type: in vivo, barnyard grass (Echinochloa crus-galli); conditions: foliage application, AAH 320 g/ha, evaluated three weeks after application
Outline: as §4

wild oat [10] = assay: Test Example 5: herbicidal effect by foliage application, plastic box (Table 20, symbol I); type: in vivo, wild oat (Avena fatua); conditions: foliage application, AAH 320 g/ha, evaluated three weeks after application
Outline: as §4

blackgrass = assay: Test Example 5: herbicidal effect by foliage application, plastic box (Table 20, symbol J); type: in vivo, blackgrass (Alopecurus myosuroides); conditions: foliage application, AAH 320 g/ha, evaluated three weeks after application
Outline: as §4

Italian ryegrass [11] = assay: Test Example 5: herbicidal effect by foliage application, plastic box (Table 20, symbol K); type: in vivo, Italian ryegrass (Lolium multiflorum); conditions: foliage application, AAH 320 g/ha, evaluated three weeks after application
Outline: as §4

windgrass = assay: Test Example 5: herbicidal effect by foliage application, plastic box (Table 20, symbol L); type: in vivo, windgrass (Apera spica-venti); conditions: foliage application, AAH 320 g/ha, evaluated three weeks after application
Outline: as §4

redroot pigweed [12] = assay: Test Example 5: herbicidal effect by foliage application, plastic box (Table 20, symbol N); type: in vivo, redroot pigweed (Amaranthus retroflexus); conditions: foliage application, AAH 320 g/ha, evaluated three weeks after application
Outline: as §4

lambsquarters [13] = assay: Test Example 5: herbicidal effect by foliage application, plastic box (Table 20, symbol O); type: in vivo, lambsquarters (Chenopodium album); conditions: foliage application, AAH 320 g/ha, evaluated three weeks after application
Outline: as §4

persian speedwell = assay: Test Example 5: herbicidal effect by foliage application, plastic box (Table 20, symbol R); type: in vivo, Persian speedwell (Veronica persica); conditions: foliage application, AAH 320 g/ha, evaluated three weeks after application
Outline: as §4

Compound | herbicidal effect rating, A: late watergrass (late watergrass) | herbicidal effect rating, B: Japanese bulrush (Japanese bulrush) | herbicidal effect on H: barnyard grass (barnyard grass [1]) | herbicidal effect on E: rice flat sedge (rice flat sedge) | herbicidal effect on F: southern crabgrass (southern crabgrass [2]) | herbicidal effect on G: green foxtail (green foxtail) | herbicidal effect on H: barnyard grass (barnyard grass [3]) | herbicidal effect on I: wild oat (wild oat [4]) | herbicidal effect on K: Italian ryegrass (Italian ryegrass [5]) | herbicidal effect on M: velvetleaf (velvetleaf) | herbicidal effect on N: redroot pigweed (redroot pigweed [6]) | herbicidal effect on O: lambsquarters (lambsquarters [7]) | herbicidal effect on P: chickweed (chickweed) | F: southern crabgrass, herbicidal effect (criteria 0-5) (southern crabgrass [8]) | H: barnyard grass, herbicidal effect (criteria 0-5) (barnyard grass [9]) | I: wild oat, herbicidal effect (criteria 0-5) (wild oat [10]) | J: blackgrass, herbicidal effect (criteria 0-5) (blackgrass) | K: Italian ryegrass, herbicidal effect (criteria 0-5) (Italian ryegrass [11]) | L: windgrass, herbicidal effect (criteria 0-5) (windgrass) | N: redroot pigweed, herbicidal effect (criteria 0-5) (redroot pigweed [12]) | further results
Cc1nn(C)c(=O)c(-c2c(-c3ccc(SC4CC4)cc3)sc3ccc(F)cc23)c1O [2-254] | 4 (Herbicidal rate of 70% or more and less than 90%) | 0 (Herbicidal rate of 5% or less (almost no effect)) | 5 (Herbicidal rate of 90% or more (almost completely withered)) | 5 (Herbicidal rate of 90% or more (almost completely withered)) | 5 (Herbicidal rate of 90% or more (almost completely withered)) | 5 (Herbicidal rate of 90% or more (almost completely withered)) | 5 (Herbicidal rate of 90% or more (almost completely withered)) | 1 (Herbicidal rate of 5% or more and less than 20%) | 5 (Herbicidal rate of 90% or more (almost completely withered)) | 2 (Herbicidal rate of 20% or more and less than 40%) | 5 (Herbicidal rate of 90% or more (almost completely withered)) | 4 (Herbicidal rate of 70% or more and less than 90%) | 4 (Herbicidal rate of 70% or more and less than 90%) | 5 (Herbicidal rate of 90% or more (almost completely withered)) | 5 (Herbicidal rate of 90% or more (almost completely withered)) | 5 (Herbicidal rate of 90% or more (almost completely withered)) | 5 (Herbicidal rate of 90% or more (almost completely withered)) | 5 (Herbicidal rate of 90% or more (almost completely withered)) | 5 (Herbicidal rate of 90% or more (almost completely withered)) | 5 (Herbicidal rate of 90% or more (almost completely withered)) | O: lambsquarters, herbicidal effect (criteria 0-5) (lambsquarters [13]): 5 (Herbicidal rate of 90% or more (almost completely withered)); R: persian speedwell, herbicidal effect (criteria 0-5) (persian speedwell): 5 (Herbicidal rate of 90% or more (almost completely withered))
Cc1nn(C)c(=O)c(-c2c(-c3ccc([S+]([O-])C(C)C)cc3)sc3ccc(F)cc23)c1O (stereo not drawn) [2-257] | 2 (Herbicidal rate of 20% or more and less than 40%) | 0 (Herbicidal rate of 5% or less (almost no effect)) | 5 (Herbicidal rate of 90% or more (almost completely withered)) | 5 (Herbicidal rate of 90% or more (almost completely withered)) | 3 (Herbicidal rate of 40% or more and less than 70%) | 2 (Herbicidal rate of 20% or more and less than 40%) | 4 (Herbicidal rate of 70% or more and less than 90%) | 0 (Herbicidal rate of 5% or less (almost no effect)) | 3 (Herbicidal rate of 40% or more and less than 70%) | 3 (Herbicidal rate of 40% or more and less than 70%) | 5 (Herbicidal rate of 90% or more (almost completely withered)) | 5 (Herbicidal rate of 90% or more (almost completely withered)) | 4 (Herbicidal rate of 70% or more and less than 90%) | 3 (Herbicidal rate of 40% or more and less than 70%) | 5 (Herbicidal rate of 90% or more (almost completely withered)) | 5 (Herbicidal rate of 90% or more (almost completely withered)) | 4 (Herbicidal rate of 70% or more and less than 90%) | 5 (Herbicidal rate of 90% or more (almost completely withered)) | 5 (Herbicidal rate of 90% or more (almost completely withered)) | 5 (Herbicidal rate of 90% or more (almost completely withered)) | O: lambsquarters, herbicidal effect (criteria 0-5) (lambsquarters [13]): 5 (Herbicidal rate of 90% or more (almost completely withered)); R: persian speedwell, herbicidal effect (criteria 0-5) (persian speedwell): 5 (Herbicidal rate of 90% or more (almost completely withered))
Cc1nn(C)c(=O)c(-c2c(-c3ccc(S(C)(=O)=O)cc3)sc3ccc(F)cc23)c1O [2-258] | 4 (Herbicidal rate of 70% or more and less than 90%) | 0 (Herbicidal rate of 5% or less (almost no effect)) | 5 (Herbicidal rate of 90% or more (almost completely withered)) | 5 (Herbicidal rate of 90% or more (almost completely withered)) | 4 (Herbicidal rate of 70% or more and less than 90%) | 5 (Herbicidal rate of 90% or more (almost completely withered)) | 5 (Herbicidal rate of 90% or more (almost completely withered)) | 3 (Herbicidal rate of 40% or more and less than 70%) | 5 (Herbicidal rate of 90% or more (almost completely withered)) | 3 (Herbicidal rate of 40% or more and less than 70%) | 4 (Herbicidal rate of 70% or more and less than 90%) | 4 (Herbicidal rate of 70% or more and less than 90%) | 4 (Herbicidal rate of 70% or more and less than 90%) | 5 (Herbicidal rate of 90% or more (almost completely withered)) | 5 (Herbicidal rate of 90% or more (almost completely withered)) | 5 (Herbicidal rate of 90% or more (almost completely withered)) | 5 (Herbicidal rate of 90% or more (almost completely withered)) | 5 (Herbicidal rate of 90% or more (almost completely withered)) | 5 (Herbicidal rate of 90% or more (almost completely withered)) | 5 (Herbicidal rate of 90% or more (almost completely withered)) | O: lambsquarters, herbicidal effect (criteria 0-5) (lambsquarters [13]): 5 (Herbicidal rate of 90% or more (almost completely withered)); R: persian speedwell, herbicidal effect (criteria 0-5) (persian speedwell): 5 (Herbicidal rate of 90% or more (almost completely withered))
